The target of data set [1] is T1, reverse transcriptase of Rous sarcoma virus (Rous sarcoma virus - Prague C, UniProt P03354).
T1 construct: alpha/beta heterodimer cut from Gag-Pol polyprotein; 3H-TTP incorporation
Description: Inhibition of reverse transcriptase activity in RSV particles (3H-thymidine triphosphate incorporation). The data set is classed as biochemical. The following applies: for inhibition at 400 µg/mL: 400 μg/ml., read-out: Percent Inhibition. The procedure: Inhibition was directly related to drug concentration. […] Reverse transcriptase activities were measured from the incorporation of ^3 H-thymidine triphosphate into trichloroacetic acid insoluble counts according to a published method (Nature, 227, 563 (1970). The drug was dissolved in dimethylsulfoxide at a concentration of 10 mg./ml. ##SPC3##
Degrees of the inhibition are listed below in Table 1.

Data set [2] can be described thus: Drug control group: mortality of uninfected chicks given drug. Format: in vivo, chickens. The note with it: Drug I control, 200 mg./kg. by gavage every other day, 25 birds. The text has this: (§1) To test the effectiveness of the present compounds, 12-day-old Cofal negative chicks were used. The chicks were purchased from SPAFA as 8-day-old embryonated eggs for the tests and comparison of the effectiveness of the inhibitors of the present invention. The chicks were divided into four groups of 25 birds per group:
(§2) Group 1 - Drug I control (9-0-methyloximinyl erythromycin A;
(§3) The medication with the virus and drug combinations was started by gavage two days before the chicks were infected with the virus. The chickens treated with Drug I, 9-0-methyloximinyl erythromycin A, received 200 mg./kg. every other day for the entire 35 days of the experiment. Each week the chickens were weighed and the drug level was adjusted to accommodate the new weight.
(§4) The chickens were observed daily for the 35 days that the experiment was allowed to continue.
(§5) On the last day, the 35th day, all surviving chickens were sacrificed, weighed and autopsied.

The test system of data set [3] is Rous sarcoma virus. Description: Blocking of transformation (focus formation) of chick embryonic fibroblasts by Rous sarcoma virus in tissue culture. The data set is classed as cell-based. The procedure: In tissue culture, the effect of 9-0-methyloximinyl erythromycin A on the blocking of transformation of chick embryonic fibroblasts by Rous sarcoma virus is shown in Table 2. […] The assay was carried out according to a published method (J. Gen. Virol. I, 85 (1970).

Data set [4] concerns Rous sarcoma virus. Description: Mortality of chicks infected intra-abdominally with Rous sarcoma virus. The data set is classed as in vivo, chickens. The note with it: for Probability (Fisher's exact probability for proportions): Virus + Drug I vs Virus; for Alive / Dead: Virus + Drug I, 200 mg./kg. by gavage every other day, 25 birds per group.
Description: as §1, §2
Group 2 - Drug I + Rous sarcoma virus (RSV);
Group 3 - Rous sarcoma virus (infection control);
Group 4 - Normal control (sham media)
as §3
On the third day the chickens in Groups 2 and 3 were infected intra-abdominally with Rous sarcoma virus (RSV). The inoculum received by each bird was 0.2 ml. and contained approximately 100,000 viral particles. Group 4 received a sham inoculation of 0.2 ml. of sterile tissue culture media.
as §4, §5
The results of the experiment are provided in Table 3 which provides the following results: "Statistical Evaluation of Mortality of the Chickens".

Setting [5] is: period 4 after infection (period = 6 days).
The mark [6] stands for this setting: period 5 after infection (period = 6 days).
Where [7] appears, read: period 6 after infection (period = 6 days).

What is called inhibition is the change of the read-out against control, counted positive when it falls.

T1 sequence (P03354 709-1567): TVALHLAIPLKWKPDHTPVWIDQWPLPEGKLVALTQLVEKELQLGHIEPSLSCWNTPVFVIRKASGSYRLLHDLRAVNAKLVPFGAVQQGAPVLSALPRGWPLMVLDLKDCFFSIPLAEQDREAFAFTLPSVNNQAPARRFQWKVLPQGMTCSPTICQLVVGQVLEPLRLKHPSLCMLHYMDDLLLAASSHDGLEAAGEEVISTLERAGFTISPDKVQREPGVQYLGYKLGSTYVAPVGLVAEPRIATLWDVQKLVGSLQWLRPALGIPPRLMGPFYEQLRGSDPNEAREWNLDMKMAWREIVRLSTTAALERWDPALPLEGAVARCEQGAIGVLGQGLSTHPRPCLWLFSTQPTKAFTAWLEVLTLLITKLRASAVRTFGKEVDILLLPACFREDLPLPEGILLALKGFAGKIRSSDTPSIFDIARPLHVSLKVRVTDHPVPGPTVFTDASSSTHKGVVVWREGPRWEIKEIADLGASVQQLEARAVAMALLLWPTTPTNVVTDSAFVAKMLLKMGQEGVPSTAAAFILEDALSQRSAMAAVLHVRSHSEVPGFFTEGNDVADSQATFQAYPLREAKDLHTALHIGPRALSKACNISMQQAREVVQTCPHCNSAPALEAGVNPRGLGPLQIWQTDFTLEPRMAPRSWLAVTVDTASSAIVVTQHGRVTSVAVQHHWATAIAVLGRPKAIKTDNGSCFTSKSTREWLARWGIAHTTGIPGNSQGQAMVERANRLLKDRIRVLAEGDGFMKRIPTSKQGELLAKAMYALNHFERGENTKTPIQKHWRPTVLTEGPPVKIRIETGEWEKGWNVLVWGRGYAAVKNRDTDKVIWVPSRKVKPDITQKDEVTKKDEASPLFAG

For `CC[C@H]1OC(=O)[C@H](C)[C@@H](O[C@H]2C[C@@](C)(OC)[C@@H](O)[C@H](C)O2)[C@H](C)[C@@H](O[C@@H]2O[C@H](C)C[C@H](N(C)C)[C@H]2O)[C@](C)(O)C[C@@H](C)C(=NOC)[C@H](C)[C@@H](O)[C@]1(C)O` [9-O-methyloximinyl erythromycin A], the inhibition at 400 µg/mL in data set [1] came out at 57%. Besides, the IC50 in data set [1] (RSV particles, drug dissolved in dimethylsulfoxide, read-out: Fifty percent inhibition of reverse transcriptase activity (converted)) is approximately 459 µM. Moreover, the Alive in data set [2] (period 4 (period = 6 days)) is 25; in data set [2] (period 5 (period = 6 days)), 25; in data set [2] (period 6 (period = 6 days)), 25; in data set [4] (setting [5]) it was 18; in data set [4] (setting [6]), 13; in data set [4] (setting [7]), 8. Moreover, the Dead in data set [2] (period 4 (period = 6 days)) is 0; in data set [2] (period 5 (period = 6 days)) it was 0; in data set [2] (period 6 (period = 6 days)) it was 0; in data set [4] (setting [5]) it was 7; in data set [4] (setting [6]) it was 12; in data set [4] (setting [7]) it was 17. Also, in data set [3] (Rous sarcoma virus, Fibroblast, Drug Concentration 1 μg/ml), 1 µg/mL produced 39% inhibition. 5 µg/mL produced 53% inhibition in data set [3] (Rous sarcoma virus, Fibroblast, Drug Concentration 5 μg/ml). This compound displayed an inhibition at 10 µg/mL in data set [3] (Rous sarcoma virus, Fibroblast, Drug Concentration 10 μg/ml) of 95%. Besides, the “inhibition of focus formation” value in data set [3] (drug levels of 5-10 μg/ml) was “at least 50%”. The “tumors in survivors at sacrifice and autopsy” value in data set [4] (RSV-infected birds that received Drug I 200 mg./kg. every other day, 35th day) is listed as “had tumors in evidence”. Moreover, the “Probability (Fisher's exact probability for proportions)” value in data set [4] (period 4 after infection) is recorded as “.02”; in data set [4] (period 5 after infection) it was “.006”; in data set [4] (period 6 after infection), “.036”.

On to `CCCON=C1[C@H](C)C[C@@](C)(O)[C@H](O[C@@H]2O[C@H](C)C[C@H](N(C)C)[C@H]2O)[C@@H](C)[C@H](O[C@H]2C[C@@](C)(OC)[C@@H](O)[C@H](C)O2)[C@@H](C)C(=O)O[C@H](CC)[C@@](C)(O)[C@H](O)[C@H]1C` [9-O-propyloximinyl erythromycin A], for which, in data set [1], the inhibition at 400 µg/mL came out at 47%.

In the case of `CC[C@H]1OC(=O)[C@H](C)[C@@H](O[C@H]2C[C@@](C)(OC)[C@@H](O)[C@H](C)O2)[C@H](C)[C@@H](O[C@@H]2O[C@H](C)C[C@H](N(C)C)[C@H]2O)[C@](C)(O)C[C@@H](C)C(=NOCc2ccc(Cl)c(Cl)c2)[C@H](C)[C@@H](O)[C@H]1C` [9-O-(3,4-dichlorobenzyloximinyl) erythromycin B], the inhibition at 400 µg/mL in data set [1] is 69%.

Take `CCON=C1[C@H](C)C[C@@](C)(O)[C@H](O[C@@H]2O[C@H](C)C[C@H](N(C)C)[C@H]2O)[C@@H](C)[C@H](O[C@H]2C[C@@](C)(OC)[C@@H](O)[C@H](C)O2)[C@@H](C)C(=O)O[C@H](CC)[C@@](C)(O)[C@H](O)[C@H]1C` [9-O-ethyloximinyl erythromycin A]: in data set [1], the inhibition at 400 µg/mL was found to be 52%.

The record behind these values is patent publication US3979511A, “Inhibitors of reverse transcriptase enzymes” (Abbott Laboratories, priority 1974, dated 1976).
